{"source": "patent US7772235B2", "about": "“mGluR5 modulators” (Astrazeneca AB, priority 2006, dated 2010)", "note": "pIC50: −log10 of the molar value. Several values for one entry are separate records, joined by “and”; a condition that tells them apart may be missing. Equal values may be shown once."}
{"target": "T1, human mGluR5d (Homo sapiens, UniProt P41594)", "T1 construct": "expressed in transfected cells", "T1 sequence (P41594 21-942 isoform P41594-3 limits assumed)": "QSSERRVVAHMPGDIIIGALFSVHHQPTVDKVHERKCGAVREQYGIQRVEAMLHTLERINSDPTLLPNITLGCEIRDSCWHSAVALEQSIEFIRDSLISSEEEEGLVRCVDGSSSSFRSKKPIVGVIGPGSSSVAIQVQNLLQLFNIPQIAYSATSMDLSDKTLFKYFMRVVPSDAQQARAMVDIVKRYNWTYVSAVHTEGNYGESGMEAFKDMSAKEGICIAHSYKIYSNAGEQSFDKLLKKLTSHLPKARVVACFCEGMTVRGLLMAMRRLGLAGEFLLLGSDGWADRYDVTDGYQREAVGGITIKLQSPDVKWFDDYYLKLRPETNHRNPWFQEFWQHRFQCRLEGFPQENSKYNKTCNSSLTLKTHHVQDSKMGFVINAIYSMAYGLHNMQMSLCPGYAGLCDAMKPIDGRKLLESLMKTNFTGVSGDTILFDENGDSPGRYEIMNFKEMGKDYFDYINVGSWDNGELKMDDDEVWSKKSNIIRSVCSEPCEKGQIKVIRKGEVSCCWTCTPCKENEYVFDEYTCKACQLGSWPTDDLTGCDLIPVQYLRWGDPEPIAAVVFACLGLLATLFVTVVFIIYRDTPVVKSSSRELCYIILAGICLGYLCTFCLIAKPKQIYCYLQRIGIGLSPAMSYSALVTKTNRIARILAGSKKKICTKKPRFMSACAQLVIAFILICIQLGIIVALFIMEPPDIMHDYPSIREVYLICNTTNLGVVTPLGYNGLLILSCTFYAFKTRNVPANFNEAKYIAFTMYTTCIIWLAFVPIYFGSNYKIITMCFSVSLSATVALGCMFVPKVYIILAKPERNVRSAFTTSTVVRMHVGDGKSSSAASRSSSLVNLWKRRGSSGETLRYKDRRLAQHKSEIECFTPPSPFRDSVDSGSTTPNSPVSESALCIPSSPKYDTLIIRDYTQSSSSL", "assay": "FLIPR assay of mGluR5 antagonism (intracellular calcium mobilization)", "assay_type": "cell-based", "conditions": "cells expressing human mGluR5d", "source_text": "The properties of the compounds of the invention can be analyzed using standard assays for pharmacological activity. Examples of glutamate receptor assays are well known in the art as described in for example Aramori et al., Neuron 8:757 (1992), Tanabe et al., Neuron 8:169 (1992), Miller et al., J. Neuroscience 15: 6103 (1995), Balazs, et al., J. Neurochemistry 69:151 (1997). The methodology described in these publications is incorporated herein by reference. Conveniently, the compounds of the invention can be studied by means of an assay (FLIPR) that measures the mobilization of intracellular calcium, [Ca^2+]i in cells expressing mGluR5 or another assay (IP3) that measures inositol phosphate turnover.\nCells expressing human mGluR5d as described in WO97/05252 are seeded at a density of 100,000 cells per well on collagen coated clear bottom 96-well plates with black sides and experiments are done 24 h following seeding. All assays are done in a buffer containing 127 mM NaCl, 5 mM KCl, 2 mM MgCl2, 0.7 mM NaH2PO4, 2 mM CaCl2, 0.422 mg/mL NaHCO3, 2.4 mg/mL HEPES, 1.8 mg/mL glucose and 1 mg/mL BSA Fraction IV (pH 7.4). Cell cultures in the 96-well plates are loaded for 60 minutes in the above mentioned buffer containing 4 μM of the acetoxymethyl ester form of the fluorescent calcium indicator fluo-3 (Molecular Probes, Eugene, Oreg.) in 0.01% pluronic acid (a proprietary, non-ionic surfactant polyol—CAS Number 9003-11-6). Following the loading period the fluo-3 buffer is removed and replaced with fresh assay buffer. FLIPR experiments are done using a laser setting of 0.800 W and a 0.4 second CCD camera shutter speed with excitation and emission wavelengths of 488 nm and 562 nm, respectively. Each experiment is initiated with 160 μl of buffer present in each well of the cell plate. A 40 μl addition from the antagonist plate was followed by a 50 μL addition from the agonist plate. A 30 minute interval separates the antagonist and agonist additions. The fluorescence signal is sampled 50 times at 1 second intervals followed by 3 samples at 5 second intervals immediately after each of the two additions. Responses are measured as the difference between the peak height of the response to agonist, less the background fluorescence within the sample period. IC50 determinations are made using a linear least squares fitting program."}
{"smiles": "C[C@@H](Oc1nnc(-c2ccn(C)c(=O)c2)n1C)c1cc(-c2cccc(Cl)c2)on1", "note": "[Example 36.1, 4-(5-{(1R)-1-[5-(3-Chlorophenyl)isoxazol-3-yl]ethoxy}-4-methyl-4H-1,2,4-triazol-3-yl)-1-methylpyridin-2(1H)-one]", "pIC50": 7.72}
{"smiles": "C[C@@H](Oc1nnc(-c2ccn(C)c(=O)c2)n1C)c1noc(-c2cccc(Cl)c2)n1", "note": "[Example 36.2, 4-(5-{(1R)-1-[5-(3-Chlorophenyl)-1,2,4-oxadiazol-3-yl]ethoxy}-4-methyl-4H-1,2,4-triazol-3-yl)-1-methylpyridin-2(1H)-one]", "pIC50": 7.70}
{"smiles": "Cn1c(OCc2cc(-c3cccc(Cl)c3)on2)nnc1-c1cc[nH]c(=O)c1", "note": "[Example 37.2, 4-(5-{[5-(3-chlorophenyl)isoxazol-3-yl]methoxy}-4-methyl-4H-1,2,4-triazol-3-yl)pyridin-2(1H)-one]", "pIC50": "< 5.52 and 5.80"}
{"smiles": "C[C@@H](Oc1nnc(-c2cc[nH]c(=O)c2)n1C)c1cc(-c2cccc(Cl)c2)on1", "note": "[Example 37.3, 4-(5-{(1R)-1-[5-(3-Chlorophenyl)isoxazol-3-yl]ethoxy}-4-methyl-4H-1,2,4-triazol-3-yl)pyridin-2(1H)-one]", "pIC50": 8.00}
{"smiles": "C[C@@H](Oc1nnc(-c2cc[nH]c(=O)c2)n1C)c1noc(-c2cccc(Cl)c2)n1", "note": "[Example 38.1, 4-(5-{(R)-1-[5-(3-Chloro-phenyl)-[1,2,4]oxadiazol-3-yl]-ethoxy}-4-methyl-4H-[1,2,4]triazol-3-yl)-1H-pyridin-2-one]", "pIC50": 7.89}
{"smiles": "C[C@@H](Oc1nnc(-c2cc[nH]c(=O)c2)n1C)c1nnn(-c2cccc(Cl)c2)n1", "note": "[Example 38.2, 4-(5-{(1R)-1-[2-(3-Chlorophenyl)-2H-tetrazol-5-yl]ethoxy}-4-methyl-4H-1,2,4-triazol-3-yl)pyridin-2(1H)-one]", "pIC50": 8.05}
{"smiles": "C[C@@H](Oc1nnc(-c2cn[nH]c(=O)c2)n1C)c1nnn(-c2cccc(Cl)c2)n1", "note": "[Example 38.3, 5-(5-{(1R)-1-[2-(3-Chlorophenyl)-2H-tetrazol-5-yl]ethoxy}-4-methyl-4H-1,2,4-triazol-3-yl)pyridazin-3(2H)-one]", "pIC50": 8.22}
{"smiles": "C[C@@H](Oc1nnc(-c2cn[nH]c(=O)c2)n1C)c1noc(-c2cccc(Cl)c2)n1", "note": "[Example 38.4, 5-(5-{(1R)-1-[5-(3-Chlorophenyl)-1,2,4-oxadiazol-3-yl]ethoxy}-4-methyl-4H-1,2,4-triazol-3-yl)pyridazin-3(2H)-one]", "pIC50": 7.82}
{"smiles": "C[C@@H](Oc1nnc(-c2cn[nH]c(=O)c2)n1C)c1cc(-c2cccc(Cl)c2)on1", "note": "[Example 38.5, 5-(5-{(1R)-1-[5-(3-Chlorophenyl)isoxazol-3-yl]ethoxy}-4-methyl-4H-1,2,4-triazol-3-yl)pyridazin-3(2H)-one]", "pIC50": 8.10}
{"smiles": "Cc1cccc(-n2nnc([C@@H](C)Oc3nnc(-c4cn[nH]c(=O)c4)n3C)n2)c1", "note": "[Example 38.6, 5-(4-Methyl-5-{(1R)-1-[2-(3-methylphenyl)-2H-tetrazol-5-yl]ethoxy}-4H-1,2,4-triazol-3-yl)pyridazin-3(2H)-one]", "pIC50": 8.15}
{"smiles": "Cc1cccc(-c2cc([C@@H](C)Oc3nnc(-c4cn[nH]c(=O)c4)n3C)no2)c1", "note": "[Example 38.7, 5-(4-Methyl-5-{(1R)-1-[5-(3-methylphenyl)isoxazol-3-yl]ethoxy}-4H-1,2,4-triazol-3-yl)pyridazin-3(2H)-one]", "pIC50": 7.92}
{"system": "not listed separately", "assay": "Determination of brain to plasma ratio (B/P ratio) in rat", "assay_type": "in vivo, female Sprague Dawley rats", "conditions": "female, Sprague-Dawley, read-out: B/P Ratio (drug in brain over drug in plasma)", "description": "Brain to plasma ratios are estimated in female Sprague Dawley rats. The compound is dissolved in water or another appropriate vehicle. For determination of brain to plasma ratio the compound is administrated as a subcutaneous, or an intravenous bolus injection, or an intravenous infusion, or an oral administration. At a predetermined time point after the administration a blood sample is taken with cardiac puncture. The rat is terminated by cutting the heart open, and the brain is immediately retained. The blood samples are collected in heparinized tubes and centrifuged within 30 minutes, in order to separate the plasma from the blood cells. The plasma is transferred to 96-well plates and stored at −20° C. until analysis. The brains are divided in half, and each half is placed in a pre-tarred tube and stored at −20° C. until analysis. Prior to the analysis, the brain samples are thawed and 3 mL/g brain tissue of distilled water is added to the tubes. The brain samples are sonicated in an ice bath until the samples are homogenized. Both brain and plasma samples are precipitated with acetonitrile. After centrifugation, the supernatant is diluted with 0.2% formic acid. […] After reconstitution of the residuals the samples are ready for injection onto the HPLC column."}
{"smiles": "C[C@@H](Oc1nnc(-c2cc[nH]c(=O)c2)n1C)c1cc(-c2cccc(Cl)c2)on1", "note": "[Example 37.3, 4-(5-{(1R)-1-[5-(3-Chlorophenyl)isoxazol-3-yl]ethoxy}-4-methyl-4H-1,2,4-triazol-3-yl)pyridin-2(1H)-one]", "Kp": 0.02}
{"smiles": "C[C@@H](Oc1nnc(-c2ccncc2)n1C)c1cc(-c2cccc(Cl)c2)on1", "note": "[reference compound]", "Kp": 0.8}
